This note sets out measurements from ChEMBL document CHEMBL4715726, “Identification, characterization, kinetics, and molecular docking of flavonoid constituents from Archidendron clypearia (Jack.) Nielsen leaves and twigs” (Bioorg Med Chem, 2016).

Experiment [1] has as its target T1, Bifunctional epoxide hydrolase 2 (Homo sapiens) (UniProt P34913).
T1 sequence (whole entry): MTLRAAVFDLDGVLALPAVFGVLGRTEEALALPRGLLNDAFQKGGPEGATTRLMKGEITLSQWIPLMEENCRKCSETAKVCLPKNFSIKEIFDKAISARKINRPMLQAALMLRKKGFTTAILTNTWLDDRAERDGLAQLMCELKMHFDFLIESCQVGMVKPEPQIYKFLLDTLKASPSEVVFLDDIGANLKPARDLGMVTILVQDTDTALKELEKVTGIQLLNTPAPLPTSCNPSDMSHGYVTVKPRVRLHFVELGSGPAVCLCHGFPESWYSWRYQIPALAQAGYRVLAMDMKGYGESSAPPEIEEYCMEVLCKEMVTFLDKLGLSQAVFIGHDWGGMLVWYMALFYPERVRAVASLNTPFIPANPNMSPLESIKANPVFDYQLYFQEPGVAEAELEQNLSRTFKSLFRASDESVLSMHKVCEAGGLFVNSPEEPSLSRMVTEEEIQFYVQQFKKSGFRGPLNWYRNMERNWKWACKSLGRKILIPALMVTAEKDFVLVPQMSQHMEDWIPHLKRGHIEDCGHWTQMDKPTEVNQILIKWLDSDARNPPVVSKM
The experiment can be described thus: Inhibition of sEH (unknown origin) assessed as reduction in 6-methoxy-2-naphthaldehyde formation at 100 uM using PHOME as substrate measured after 40 mins by fluorescence photometry analysis relative to control.

Experiment [2] has as its target T1, Bifunctional epoxide hydrolase 2 (Homo sapiens). To be noted: dose 25.0 nM, time 40.0 min.
For experiment [3], the target named is T2, Bifunctional epoxide hydrolase 2 (Homo sapiens, UniProt P34913).
T2 sequence (P34913 whole entry): T1 sequence (whole entry)
The experiment can be described thus: Inhibition of sEH (unknown origin) assessed as reduction in 6-methoxy-2-naphthaldehyde formation using PHOME as substrate measured after 40 mins by fluorescence photometry analysis.

Experiment [4] addresses T2, Bifunctional epoxide hydrolase 2. Put plainly: Non competitive inhibition of sEH (unknown origin) using varying levels of PHOME as substrate by Dixon plot analysis.
The target is the same in experiment [5]. The experiment can be described thus: Mixed type inhibition of sEH (unknown origin) using varying levels of PHOME as substrate by Dixon plot analysis.
The target is the same in experiment [6]. Put plainly: Competitive inhibition of sEH (unknown origin) using varying levels of PHOME as substrate by Dixon plot analysis.

One may read the inhibition as how much of the control response was suppressed. Turning to `COc1cc([C@@H](O)CC(=O)c2c(O)cc(O[C@@H]3O[C@H](CO)[C@@H](O)[C@H](O)[C@H]3O[C@@H]3OC[C@](O)(CO)[C@H]3O)cc2O)ccc1O`, the inhibition in experiment [1] turned out to be 50.9%.

`CCCCOC(=O)CCCCCCCCCCCNC(=O)NC12CC3CC(CC(C3)C1)C2` displayed an inhibition in experiment [2] of 58.9%.

In general, IC50 refers to the concentration needed to halve the response being measured. The Ki is the equilibrium dissociation constant of an inhibitor or competing ligand from its target. Take `C[C@@H]1O[C@@H](Oc2c(-c3ccc(O)c(O)c3)oc3cc(O)cc(O)c3c2=O)[C@H](O)[C@H](O)[C@H]1O` [QUERCITRIN]: in experiment [1], the inhibition was determined as 78.5%. For the same compound, the IC50 in experiment [3] amounted to 11.8 µM. This compound displayed a Ki in experiment [4] of 39.6 µM.

Regarding `COc1cc(O)c2c(=O)cc(-c3ccc(O[C@@H]4O[C@H](CO)[C@@H](O)[C@H](O)[C@H]4O)c(OC)c3)oc2c1`, in experiment [1], the inhibition came out at 98.5%. Also, the concentration for half-maximal inhibition (IC50) in experiment [3] is 17.5 µM. In experiment [5], this compound yielded a Ki of 37.1 µM.

Turning to `COc1cc(O)c2c(=O)cc(-c3ccc(O[C@@H]4O[C@H](CO)[C@@H](O)[C@H](O)[C@H]4O[C@@H]4OC[C@](O)(CO)[C@H]4O)c(OC)c3)oc2c1`, the inhibition in experiment [1] was determined as 66.1%.

Regarding `O=C(Oc1cc(O)c2c(c1)O[C@H](c1cc(O)c(O)c(O)c1)CC2)c1cc(O)c(O)c(O)c1`, in experiment [1], the inhibition stood at 90.8%. For the same compound, the concentration for half-maximal inhibition (IC50) in experiment [3] is 10 µM. The compound further had a Ki in experiment [5] of 45.5 µM.

For `O=C(Oc1c(-c2ccc(O)c(O)c2)oc2cc(O)cc(O)c2c1=O)c1cc(O)c(O)c(O)c1`, the inhibition in experiment [1] is 91.2%. For the same compound, the 50% inhibitory concentration (IC50) in experiment [3] was found to be 11.5 µM. The same compound came in with a Ki in experiment [4] of 21.5 µM.

Turning to `COc1cc(O)c(C(=O)/C=C/c2ccc(O)c(OC)c2)c(O[C@@H]2O[C@H](CO)[C@@H](O)[C@H](O)[C@H]2O)c1`, in experiment [1], the inhibition was determined as 56.3%.

`COc1cc(O)c2c(c1)O[C@H](c1cc(O)c(O[C@@H]3O[C@H](CO)[C@@H](O)[C@H](O)[C@H]3O[C@@H]3OC[C@](O)(CO)[C@H]3O)c(OC)c1)CC2=O`: in experiment [1], the inhibition is 53.5%.

Regarding `COc1cc(O)c2c(=O)c(O)c(-c3ccc(O[C@@H]4O[C@H](CO)[C@@H](O)[C@H](O)[C@H]4O[C@@H]4OC[C@](O)(CO)[C@H]4O)c(OC)c3)oc2c1`, the inhibition in experiment [1] turned out to be 64.1%.

With `COc1cc(O)c2c(=O)c(OC)c(-c3ccc(O[C@@H]4O[C@H](CO)[C@@H](O)[C@H](O)[C@H]4O[C@@H]4OC[C@](O)(CO)[C@H]4O)c(OC)c3)oc2c1`, the inhibition in experiment [1] is 90.8%. For the same compound, in experiment [3], the 50% inhibitory concentration (IC50) was 12 µM. Moreover, the Ki in experiment [4] turned out to be 18.2 µM.

For `COc1cc(O)c2c(=O)c(O[C@@H]3O[C@H](CO)[C@@H](O)[C@H](O)[C@H]3O)c(-c3ccc(O[C@@H]4O[C@H](CO)[C@@H](O)[C@H](O)[C@H]4O)c(OC)c3)oc2c1`, the inhibition in experiment [1] worked out at 95.8%. The concentration for half-maximal inhibition (IC50) in experiment [3] was 19.8 µM. This compound had a Ki in experiment [6] of 24.6 µM.

For the compound `COc1cc(-c2oc3cc(O)cc(O)c3c(=O)c2O[C@@H]2O[C@H](CO)[C@@H](O)[C@H](O)[C@H]2O)ccc1O`, in experiment [1], the inhibition amounted to 86.5%. Moreover, in experiment [3], the IC50 stood at 30.1 µM. This compound had an inhibition constant (Ki) in experiment [5] of 29.7 µM.

Take `COc1cc([C@@H](O)CC(=O)c2c(O)cc(O[C@@H]3O[C@H](CO)[C@@H](O)[C@H](O)[C@H]3O)cc2O)ccc1O`: the inhibition in experiment [1] turned out to be 33.9%.
